Test results reported in patent US7049289B1, “Labelled glutamine and lysine analogues” (Amersham PLC, priority 1998, dated 2006).
Where two headings read alike, the source gives them in different places. *1 amine or outer side, *2 acyl side, *3 side chain or, on linkers, in order; H or OH if unused. Glutaryl = O=C(CCCC(=O)[*:2])[*:1]; code Z = not defined here

Tests used:
[1] = biological target: T1, fibrin (in vitro human plasma clot) (Homo sapiens, UniProt P02671+P02675+P02679); assay: Incorporation into human plasma clots in vitro; format: biochemical; conditions: for % specific uptake: % retained (with thrombin) - % retained (no thrombin); for % retained (no thrombin): control without thrombin and calcium chloride (non-specific binding); for % retained (with thrombin): human plasma clot, 60 minutes, ca. 20° C.
T1 construct: about 400 μl of human plasma containing the radiolabelled substrate; from tissue; host or cells: human plasma, clotted in vitro with added thrombin and calcium chloride
T1 sequence (P02671 20-644 isoform P02671-2 limits assumed): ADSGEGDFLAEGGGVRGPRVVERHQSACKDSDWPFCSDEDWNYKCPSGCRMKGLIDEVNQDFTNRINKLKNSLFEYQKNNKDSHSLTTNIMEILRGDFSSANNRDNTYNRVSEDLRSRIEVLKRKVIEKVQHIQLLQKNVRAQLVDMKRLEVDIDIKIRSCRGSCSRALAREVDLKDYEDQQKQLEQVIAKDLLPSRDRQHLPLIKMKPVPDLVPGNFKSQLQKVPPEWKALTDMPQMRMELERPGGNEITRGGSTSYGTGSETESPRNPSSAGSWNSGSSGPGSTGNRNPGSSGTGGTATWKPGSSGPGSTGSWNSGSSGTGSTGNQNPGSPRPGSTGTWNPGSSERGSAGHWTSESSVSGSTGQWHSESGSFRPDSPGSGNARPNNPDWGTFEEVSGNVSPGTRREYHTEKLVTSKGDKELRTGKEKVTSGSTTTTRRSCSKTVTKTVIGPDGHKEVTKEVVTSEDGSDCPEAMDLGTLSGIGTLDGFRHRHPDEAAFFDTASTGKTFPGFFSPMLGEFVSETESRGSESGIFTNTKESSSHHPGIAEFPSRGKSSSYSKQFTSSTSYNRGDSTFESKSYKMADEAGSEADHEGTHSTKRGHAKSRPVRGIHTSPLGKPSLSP
T1 sequence (P02675 45-491 limits assumed): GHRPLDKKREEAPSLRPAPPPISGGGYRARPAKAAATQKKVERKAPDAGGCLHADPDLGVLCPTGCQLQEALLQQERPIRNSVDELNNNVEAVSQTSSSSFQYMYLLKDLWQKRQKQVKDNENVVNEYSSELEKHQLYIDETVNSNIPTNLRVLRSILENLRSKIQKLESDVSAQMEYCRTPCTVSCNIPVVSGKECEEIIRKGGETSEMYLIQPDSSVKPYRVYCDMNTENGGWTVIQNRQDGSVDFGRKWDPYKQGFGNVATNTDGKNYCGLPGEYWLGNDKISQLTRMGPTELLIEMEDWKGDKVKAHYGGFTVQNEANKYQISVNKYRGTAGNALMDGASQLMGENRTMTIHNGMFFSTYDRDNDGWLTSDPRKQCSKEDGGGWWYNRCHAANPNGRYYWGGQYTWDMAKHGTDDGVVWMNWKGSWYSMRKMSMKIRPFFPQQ
T1 sequence (P02679 27-437 isoform P02679-2 limits assumed): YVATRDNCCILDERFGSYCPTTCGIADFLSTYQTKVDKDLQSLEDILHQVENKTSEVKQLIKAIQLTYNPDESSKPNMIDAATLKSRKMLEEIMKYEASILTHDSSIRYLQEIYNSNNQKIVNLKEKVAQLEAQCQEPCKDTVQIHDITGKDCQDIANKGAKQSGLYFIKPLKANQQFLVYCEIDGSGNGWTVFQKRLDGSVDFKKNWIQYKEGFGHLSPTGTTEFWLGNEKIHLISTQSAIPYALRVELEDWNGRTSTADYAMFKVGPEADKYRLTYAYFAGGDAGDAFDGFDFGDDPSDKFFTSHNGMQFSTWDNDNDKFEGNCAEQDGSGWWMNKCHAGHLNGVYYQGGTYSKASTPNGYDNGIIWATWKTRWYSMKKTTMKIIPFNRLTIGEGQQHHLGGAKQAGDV
Procedure, shortened: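 Human plasma containing radiolabelled substrate (typically 10 kBq/ml) clotted with thrombin in Tris-saline pH 7.5 with 4 mM CaCl2, 60 min at ca. 20 °C, then stopped with cold EDTA. Clots collected on nitrocellulose filters and washed; incorporation is filter-retained radioactivity fraction minus non-specific binding from thrombin/calcium-free controls.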

[2] = Incorporation into clots induced in a rat model (rat inferior vena cava model); format: in vivo, rat (Male Wistar); conditions: for % id/g (clot) / Rel. Conc. (cpm/g of clot by dose/g animal): sacrificed after 60 min
Procedure, shortened: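 Male Wistar rats (250–350 g) under 15% urethane anaesthesia, with the vena cava isolated by laparotomy. Compounds given 5 min (fresh clot) or 60 min (aged clot) after clot induction; clot, blood, lung and heart removed 60 min later, weighed and counted. Uptake expressed as cpm/g clot per dose/g animal and as clot-to-background tissue ratio.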

[3] = human, plasma, 2 h
Procedure: (§1) To a portion of compound (50 μl, 10 MBq/ml) was added an equal volume of plasma (rat or human) or saline. The mixtures were incubated at 37° C. and the stability measured by HPLC (system C) at 0, 30 and 120 minutes. The saline dilution acted as a control.

[4] = rat, plasma, 2 h
Procedure: as §1

[5] = Aged Clots: injected 60 min post-induction
[6] = Fresh Clots: injected 5 min post-induction

Substance	% specific uptake [1] [%]	% retained (no thrombin) [1] [%]	% retained (with thrombin) [1] [%]	Clot/blood ([2]; Aged Clots)	Clot/heart ([2]; Aged Clots)	Clot/liver ([2]; Aged Clots)	Clot/lung ([2]; Aged Clots)	% id/g (clot) [2, 5] [% id/g]	Rel. Conc. (cpm/g of clot by dose/g animal) [2, 5]	Clot/blood ([2]; Fresh Clots)	Clot/heart ([2]; Fresh Clots)	Clot/liver ([2]; Fresh Clots)	Clot/lung ([2]; Fresh Clots)	% id/g (clot) [2, 6] [% id/g]	Rel. Conc. (cpm/g of clot by dose/g animal) [2, 6]	% intact at 120 mins [3] [%]	% intact at 120 mins [4] [%]	in vitro clot uptake (in words) [1]
Ac-NQEAVSPYTLLKG-Pn44 (also: 99mTc complex) [^99mTc-Cmpd 12]	34.5	0.3	34.8	19	75	7	15	4.1 ± 1.2	11.2 ± 3.4	20	31	8	17	7.3 ± 4.1	19.8 ± 11.0	>90	>90	
Ac-NQEQVG-Pn44 [^99mTc-Cmpd 17]	40.6	0.7	41.3	3	7	3	5	0.8 ± 0.1	2.7 ± 0.6	7	18	5	12	1.2 ± 0.7	3.7 ± 2.3	>90	>90	
Ac-NQEQVSPYTLLKG-Hynic (also: 99mTc complex) [^99mTc-Cmpd 4]	21.0	0.1	22.0	8	19	19	10	1.2 ± 1.1	4.1 ± 4.0	6	15	20	8	2.0 ± 0.6	6.5 ± 2.0	>90	>90	
Ac-NQG-Pn44 [^99mTc-Cmpd 16]	12.4	0.1	12.5							3	8	0.8	3	0.3 ± 0.1	1.0 ± 0.2	>90	>90	significant reduction in uptake
Pn216-CO(CH2)3CO-G(D-K)(D-L)(D-L)(D-T)(D-Y)(D-P)(D-S)(D-V)NH2 [^99mTc-Cmpd 36]	8.6	0.1	8.7	0.6	18	4	10	0.1 ± 0.02	0.2 ± 0.1	1	3	4	1	0.2 ± 0.1	0.7 ± 0.3			significant reduction in uptake
Pn216-CO(CH2)3CO-NQEQVSPYTLLKG-NH2 ({Pn216-Glutaryl}-NQEQVSPYTLLKG-NH2; also: 99mTc complex) [^99mTc-Cmpd 39]	23.0	0.1	23.1	15	43	11	12	2.4 ± 0.3	8.2 ± 1.1	9	29	31	14	2.5 ± 0.3	9.0 ± 1.1			
Z-NQEQVSP(I-Y)TLLKG-Pn216 [^99mTc-Cmpd 24]	56.4	0.4	56.8	15	40	37	20	4.1 ± 2.5	11.9 ± 8.0	10	21	11	10	4.0 ± 2.2	11.1 ± 6.7			
Z-NQEQVSPYAAAAG-Pn216 ({code Z}-NQEQVSPYAAAAG-Pn216; reading uncertain; also: 99mTc complex, printed as Z-NQEQVSPYAAAAG-Pn216) [^99mTc-Cmpd 42]	14.0	0.2	14.2	5	21	6	7	0.4 ± 0.1	1.3 ± 0.3	2	1	63	0.3	0.3 ± 0.1	0.3 ± 0.2			
Z-NQEQVSPYTLLKG-Pn216 ({code Z}-NQEQVSPYTLLKG-Pn216; reading uncertain; also: 99mTc complex, printed as Z-NQEQVSPYTLLKG-Pn216) [^99mTc-Cmpd 8]	24.5	1.4	25.9	10	24	16	9	5.3 ± 1.3	16.4 ± 4.3	14	41	21	18	6.7 ± 1.7	21.0 ± 6.8			
p-EAQIVG-Pn44 [^99mTc-Cmpd 46]	6.1	0.2	6.3	4	5	1	3	0.5 ± 0.2	1.3 ± 0.6	5	6	1	3	0.8 ± 0.4	2.0 ± 0.7			significant reduction in uptake
